Laboratory results: US11976064B2, “Toll-like receptor agonists” (Pfizer Inc., priority 2019, dated 2024)

These compounds were tested against T1, human toll like receptor 8 (hTLR8) (Homo sapiens, UniProt Q9NR97) (assay: hTLR8 cell functional assay (HEK-Blue hTLR8 SEAP reporter)). Conditions: HEK293 cells stably overexpressing hTLR8, SEAP reporter; geometric mean when tested more than once.
T1 construct: host or cells: HEK293 (HEK-Blue hTLR8)
T1 sequence (Q9NR97 27-1041): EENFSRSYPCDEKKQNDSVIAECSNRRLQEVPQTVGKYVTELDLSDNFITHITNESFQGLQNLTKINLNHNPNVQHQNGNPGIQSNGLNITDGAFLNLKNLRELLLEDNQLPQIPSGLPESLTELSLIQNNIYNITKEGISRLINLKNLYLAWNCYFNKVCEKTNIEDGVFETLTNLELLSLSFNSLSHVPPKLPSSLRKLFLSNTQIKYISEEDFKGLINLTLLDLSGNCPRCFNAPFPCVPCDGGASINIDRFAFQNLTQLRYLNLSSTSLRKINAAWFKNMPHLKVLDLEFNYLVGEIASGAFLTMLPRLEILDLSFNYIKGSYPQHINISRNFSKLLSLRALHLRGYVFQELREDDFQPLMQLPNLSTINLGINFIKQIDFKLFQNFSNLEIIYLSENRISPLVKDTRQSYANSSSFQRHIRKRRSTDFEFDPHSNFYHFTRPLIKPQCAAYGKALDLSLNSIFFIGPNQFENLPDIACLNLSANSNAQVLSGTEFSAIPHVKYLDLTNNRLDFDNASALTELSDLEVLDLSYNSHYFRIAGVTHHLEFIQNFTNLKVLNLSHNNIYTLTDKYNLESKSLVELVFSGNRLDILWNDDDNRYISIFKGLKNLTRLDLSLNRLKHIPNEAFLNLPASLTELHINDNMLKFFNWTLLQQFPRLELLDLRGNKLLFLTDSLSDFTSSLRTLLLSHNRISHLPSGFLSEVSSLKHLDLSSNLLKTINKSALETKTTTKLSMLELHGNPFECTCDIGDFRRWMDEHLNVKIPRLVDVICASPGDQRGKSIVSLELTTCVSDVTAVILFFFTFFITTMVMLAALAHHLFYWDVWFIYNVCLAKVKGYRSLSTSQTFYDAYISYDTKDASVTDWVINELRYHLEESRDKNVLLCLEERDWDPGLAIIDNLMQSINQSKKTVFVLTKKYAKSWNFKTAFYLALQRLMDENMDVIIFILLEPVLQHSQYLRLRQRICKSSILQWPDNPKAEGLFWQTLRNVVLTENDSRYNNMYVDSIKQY
Type: cell-based
Description: The Examples described were tested for biological activity in functional cellular assays using HEK293 cells stably overexpressing human TLR7 or TLR8. The assays tested for the ability of each Example to stimulate secretion of interferon alpha (IFNα) in human primary blood mono nuclear cells (PBMC).
To determine the ability of each Example to activate the human toll like receptor 7 (hTLR7) or human toll like receptor 8 (hTLR8), cell-based reporter systems were utilized. HEK293 cells stably overexpressing either hTLR7 or hTLR8 along with a reporter gene containing an optimized secreted embryonic alkaline phosphatase gene (SEAP), under the control of the IFN-b minimal promoter fused to five NF-κB and AP-1-binding sites, were obtained from Invivogen (HEK-Blue™ hTLR7, cat #Hkb-ht1r7; HEK-Blue™ hTLR8, cat #Hkb-ht1r8). Stimulation of hTLR7 or hTLR8 in these cells activates NF-κB and AP-1 and induces the production of SEAP which can be quantified using an alkaline phosphatase detection reagent.
Cells were maintained in Dulbecco's Modified Eagle Media (DMEM) (containing Fetal Bovine Serum (FBS) heat inactivated (10%), Glutamax (2 mM), Penicillin/Streptomycin, Blasticidin (10 μg/ml), Zeocin (100 μg/ml) and Normocin (100 μg/ml)). On day one of the assay, Examples were prepared using 11-point half-log serial dilutions from a 10mM DMSO stock solution and 50 nl was spotted into 384-well Viewplates (PerkinElmer, cat #6007480). Positive control TLR7/8 agonist and negative control (DMSO, no Example) were also spotted within the assay plate and were used to determine percent effect during the analysis process. After resuspension in DMEM assay media containing FBS heat inactivated (10%), Glutamax (2 mM) and Penicillin/Streptomycin, 10,000 cells/20 μl/well were added to previously prepared plates. Plates were incubated overnight (16-20 hrs) at 37° C. in a 5% CO2 environment. Prewetted Microclime lids (Labcyte, LLS-0310) were used to prevent evaporation. On day two of the assay, QUANTI-Blue™ detection reagent was prepared by reconstituting QUANTI-Blue™ powder (InvivoGen, Rep-qb1) with 100 ml of sterile water and allowed to equilibrate to 37° C. for 15 minutes. 20 μl of QUANTI-Blue™ detection reagent was added to each well and plates were incubated at room temperature for 180 min. At the end of the incubation, plates were read on an Envision (Perkin Elmer) plate reader capturing absorbance at 650 nm.
Using Positive (TLR7/8 agonist) and Negative (DMSO) controls, the percent (%) effect was calculated for each Example using the following equation: effect=100−[100*{(Example−Positive Control)/(Negative Control−Positive Control)}]
The % effect at each concentration of each Example was calculated utilizing the ABase software suite (IBDS) and was relative to the amount of SEAP produced in the positive and negative control wells contained within each assay plate. The concentrations and % effect values for each Example were fit using a 4-parameter logistic model in ABase and the concentration of each Example that produced 50% response (EC50) was calculated.

Row | EC50 [µM] | SMILES
1 | 1.44 | CCOCc1nc2c(N)nc(C)c(C)c2n1CC(CC)(CO)CO [Example 9, 2-((4-amino-2-(ethoxymethyl)-6,7-dimethyl-1H-imidazo[4,5-c]pyridin-1-yl)methyl)-2-ethylpropane-1,3-diol]
2 | 0.104 | CCCCc1nc2c(N)nc3c(c2n1CC(C)(CO)CO)CCCC3 [Example 13, 2-((4-amino-2-butyl-6,7,8,9-tetrahydro-1H-imidazo[4,5-c]quinolin-1-yl)methyl)-2-methylpropane-1,3-diol]
3 | 0.247 | CCCCc1nc2c(N)nc3c(c2n1CC(C)(CO)CO)CCC3 [Example 14, 2-((4-amino-2-butyl-7,8-dihydrocyclopenta[b]imidazo[4,5-d]pyridin-1(6H)-yl)methyl)-2-methylpropane-1,3-diol]
4 | 0.613 | CCc1nc2c(N)nc3ccccc3c2n1CC(C)(CO)CO [Example 15, 2-((4-amino-2-ethyl-1H-imidazo[4,5-c]quinolin-1-yl)methyl)-2-methylpropane-1,3-diol]

Second part, the compound before the results:

Row | SMILES | EC50 [µM]
5 | CCOCc1nc2c(N)nc(C)c(C)c2n1CC(C)(CO)COC (single isomer, unassigned) [Example 6, 3-(4-amino-2-(ethoxymethyl)-6,7-dimethyl-1H-imidazo[4,5-c]pyridin-1-yl)-2-(methoxymethyl)-2-methylpropan-1-ol] | 6.4
6 | CCOCc1nc2c(N)nc(C)c(C)c2n1CC(C)(CO)COC (single isomer, unassigned) [Example 7, 3-(4-amino-2-(ethoxymethyl)-6,7-dimethyl-1H-imidazo[4,5-c]pyridin-1-yl)-2-(methoxymethyl)-2-methylpropan-1-ol] | 16.5
7 | CCOCc1nc2c(N)nc(C)c(C)c2n1CC(CO)CO [Example 1, 2-((4-amino-2-(ethoxymethyl)-6,7-dimethyl-1H-imidazo[4,5-c]pyridin-1-yl)methyl)propane-1,3-diol] | 2.55
8 | CCOCc1nc2c(N)nc(C)c(C)c2n1CC(C)(CO)CO [Example 2, 2-((4-amino-2-(ethoxymethyl)-6,7-dimethyl-1H-imidazo[4,5-c]pyridin-1-yl)methyl)-2-methylpropane-1,3-diol] | 0.811
9 | CCOCc1nc2c(N)nc3ccccc3c2n1CC(C)(CO)CO [Example 3, 2-((4-amino-2-(ethoxymethyl)-1H-imidazo[4,5-c]quinolin-1-yl)methyl)-2-methylpropane-1,3-diol] | 0.194
10 | Cc1nc(N)c2nc(CC(F)(F)F)n(CC(C)(CO)CO)c2c1C [Example 8, 2-((4-amino-6,7-dimethyl-2-(2,2,2-trifluoroethyl)-1H-imidazo[4,5-c]pyridin-1-yl)methyl)-2-methylpropane-1,3-diol] | 8.02
11 | CCCCc1nc2c(N)nc3ccccc3c2n1CC(C)(CO)CO [Example 10, 2-((4-amino-2-butyl-1H-imidazo[4,5-c]quinolin-1-yl)methyl)-2-methylpropane-1,3-diol] | 0.092
12 | CCCc1nc2c(N)nc3ccccc3c2n1CC(C)(CO)CO [Example 16, 2-((4-amino-2-propyl-1H-imidazo[4,5-c]quinolin-1-yl)methyl)-2-methylpropane-1,3-diol] | 0.325
